Where “and” joins values, the source holds several entries; their conditions need not be identical. Identical values can stand only once. Like-named read-outs stand apart in the source and are kept apart here.

In experiment [1] the target is T1, EPPasePGM (EPPase PGM domain, residues 69 to 330) (Bombyx mori, UniProt Q7YTB0).
T1 sequence (Q7YTB0 69-330 isoform Q7YTB0-1): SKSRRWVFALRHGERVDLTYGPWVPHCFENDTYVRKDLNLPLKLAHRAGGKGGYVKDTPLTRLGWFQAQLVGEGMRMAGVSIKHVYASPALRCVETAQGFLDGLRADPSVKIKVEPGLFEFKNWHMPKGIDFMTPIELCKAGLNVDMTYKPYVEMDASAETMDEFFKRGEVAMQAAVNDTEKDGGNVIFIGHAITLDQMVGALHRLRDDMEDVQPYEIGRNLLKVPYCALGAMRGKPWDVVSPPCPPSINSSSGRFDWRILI
The experiment can be described thus: Phosphatase activity. The following applies: for Dephosphorylation by EPPasePGM (substrate specificity): 50 nM EPPasePGM, 1 mM compound, pH 7.5, pNPP as positive control, data not shown; for Km: substrate of wild-type EPPasePGM; for Km / kcat: pH 7.5, 37 °C; for kcat: substrate turnover by wild-type EPPasePGM, 50 nM enzyme.

The next experiment has as its target Sts-1PGM (Mus musculus, UniProt Q8BGG7). The experiment can be described thus: Phosphatase activity. It is filed as biochemical. The following applies: for Km: substrate of Sts-1PGM; for kcat: substrate turnover by Sts-1PGM.
In the next experiment the target is EPPasePGM K196S (Bombyx mori, UniProt Q7YTB0, K526S). Format: biochemical.
EPPasePGM K196S, sequence (Q7YTB0 399-660 K526S): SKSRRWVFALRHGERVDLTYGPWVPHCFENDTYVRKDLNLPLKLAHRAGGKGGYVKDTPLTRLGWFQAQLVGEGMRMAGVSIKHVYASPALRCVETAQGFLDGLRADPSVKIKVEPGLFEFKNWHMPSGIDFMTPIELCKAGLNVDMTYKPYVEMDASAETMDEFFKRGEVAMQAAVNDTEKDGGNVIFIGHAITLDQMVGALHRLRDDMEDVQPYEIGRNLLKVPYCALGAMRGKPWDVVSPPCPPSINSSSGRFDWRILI
Experiment [2] concerns the target T2, EPPasePGM K292S (Bombyx mori, UniProt Q7YTB0, K622S). It is filed as biochemical.
For another experiment, the target named is EPPasePGM K196D (Bombyx mori, UniProt Q7YTB0, K526D). The experiment can be described thus: Phosphatase activity of EPPasePGM K196D mutant. It is filed as biochemical.
EPPasePGM K196D, sequence (Q7YTB0 399-660 K526D): as the sequence (Q7YTB0 399-660 K526S) above, with S128D counted along it
Experiment [3] has as its system EPPase. Particulars: native or recombinant full-length EPPase; ref [9]; cited from earlier work.
A further experiment addresses T3, EPPasePGM (Bombyx mori, UniProt Q7YTB0).
T3 sequence (Q7YTB0 69-330 isoform Q7YTB0-1): T1 sequence (Q7YTB0 69-330 isoform Q7YTB0-1)
The experiment can be described thus: Inhibition of EPPasePGM pNPP hydrolysis. Format: biochemical.

The target in experiment [4] is T2, EPPasePGM K292S. The experiment can be described thus: biochemical.
Experiment [5] deals with EPPase. The experiment can be described thus: Phosphatase activity of native or recombinant full-length EPPase. It is filed as biochemical, Bombyx mori. Particulars: E22P versus pTyr-peptide.
The mark [6] stands for this setting: IC50, 1 mM pNPP, 50 nM EPPasePGM, 37 °C, pH 7.5.
[7] abbreviates: IC50, 1 mM pNPP, 50 nM EPPasePGM, 37 °C, text values in mM.

T2 sequence (Q7YTB0 399-660 K622S): as the sequence (Q7YTB0 399-660 K526S) above, with S128K, K224S counted along it
Sts-1PGM, sequence (Q8BGG7 369-638 limits assumed): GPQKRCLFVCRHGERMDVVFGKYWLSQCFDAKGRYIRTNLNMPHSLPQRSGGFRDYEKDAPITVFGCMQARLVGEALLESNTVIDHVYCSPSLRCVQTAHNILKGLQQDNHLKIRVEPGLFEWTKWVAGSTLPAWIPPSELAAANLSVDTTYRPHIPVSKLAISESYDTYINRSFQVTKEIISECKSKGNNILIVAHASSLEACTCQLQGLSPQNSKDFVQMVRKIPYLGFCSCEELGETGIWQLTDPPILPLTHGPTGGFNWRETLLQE

For `O=P(O)(O)OC(CO)CO` [β-phospho-glycerol], the “Dephosphorylation by EPPasePGM (substrate specificity)” value (from here on “Dephosphorylation by EPPasePGM”) in [1] is “failed to dephosphorylate”.

Usually Km stands for the concentration of substrate that gives half-maximal velocity. For orientation: kcat means the maximal rate divided by the concentration of active sites. For the compound `C[C@]12C=CC(=O)C=C1CC[C@@H]1[C@@H]2[C@@H](O)C[C@@]2(C)[C@H]1CC[C@]2(O)C(=O)COP(=O)([O-])[O-].[Na+].[Na+]` [Prednisolone 21P, prednisolone 21-phosphate disodium salt], the Km at Sts-1PGM was 450 ± 90 µM; at EPPasePGM K196S, 1060 ± 240 µM; at EPPasePGM K292S [2], 510 ± 230 µM; in experiment [1], 650 ± 170 µM. Moreover, the kcat stood at 0.15 s⁻¹ at Sts-1PGM, 6.1 s⁻¹ at EPPasePGM K196S, 4.2 s⁻¹ on EPPasePGM K292S [2] and 5.9 s⁻¹ in experiment [1].

With `O=[N+]([O-])c1ccc(OP(=O)(O)O)cc1` [pNPP, para-nitrophenylphosphate], the Km at Sts-1PGM is 500 ± 70 µM; at EPPasePGM K196S, 2700 ± 160 µM; on EPPasePGM K196D it was 2500 ± 200 µM; on EPPasePGM K292S [2] it was 2400 ± 200 µM; in the experiment on EPPase [3], 13100 µM; in experiment [1], 1900 ± 200 µM. Further, the catalytic constant (kcat) is 70.1 s⁻¹ at Sts-1PGM; 5.0 s⁻¹ at EPPasePGM K196S; 2.4 s⁻¹ on EPPasePGM K196D; 6.3 s⁻¹ on EPPasePGM K292S [2]; 135 s⁻¹ with EPPase [3]; 11.7 ± 0.6 s⁻¹ and 11.7 s⁻¹ in experiment [1]. In addition, the “kcat of EPPasePGM relative to Sts-1PGM (fold slower)” value in [1] (pNPP hydrolysis) was 6. Further, the “kcat/Km of EPPasePGM relative to Sts-1PGM (fold slower)” value in experiment [1] (pNPP hydrolysis) was 20.

As to `O=P(O)(O)OC[C@H]1O[C@@H](O)[C@H](O)[C@@H](O)[C@@H]1O` [β-glucose-6-phosphate], the “Dephosphorylation by EPPasePGM” value in [1] is given as “failed to dephosphorylate”.

By Ki is commonly meant the dissociation constant of the complex between target and ligand, obtained from inhibition or displacement. By IC50 is commonly meant the point on the concentration scale where inhibition reaches its midpoint. Low values mean inhibition by little substance, high ones a need for much substance. As for `[O]=[V]([OH])([OH])[OH]` [Vanadate], affinity on EPPasePGM was put at a Ki of 1900 µM. Moreover, the IC50 on EPPasePGM (setting [6]) was found to be 2.91 mM; at EPPasePGM (setting [7]), 2.9 ± 0.43 mM.

For the compound `O=P(O)(O)O` [Phosphate], affinity on EPPasePGM was put at a Ki of 25800 µM. Besides, the figures for the IC50 against EPPasePGM (setting [6]) and against EPPasePGM (setting [7]) were 47.1 mM and 47 ± 11 mM, respectively.

For `O=P(O)(O)Oc1cccc2ccccc12` [1-naphtyl phosphate], the “Dephosphorylation by EPPasePGM” value in experiment [1] is “failed to dephosphorylate”.

For `O=P(O)(O)OC[C@H]1O[C@@H](O)[C@H](O)[C@@H]1O` [β-ribose-5-phosphate], in experiment [1], the “Dephosphorylation by EPPasePGM” value was “failed to dephosphorylate”.

On to `[O]=[W](=[O])([OH])[OH]` [Tungstate], for which, on EPPasePGM, the IC50 was determined as 0.052 mM and the inhibition constant Ki came out at 34 µM. The midpoint of inhibition against EPPasePGM K292S [4], the IC50, lay at 70 µM.

Regarding `C[C@H](C(CCC(C)(C)O)OP(=O)(O)O)[C@H]1CCC2(O)C3=CC(=O)[C@@H]4C[C@@H](O)[C@@H](O)C[C@]4(C)[C@H]3CC[C@]12C` (stereo partly drawn) [E22P, ecdysone 22-phosphate], the “kcat for E22P relative to pTyr-peptide (times lower)” value in the experiment on EPPase [5] turned out to be 8. For the same compound, in the experiment on EPPase [3], the Km was 5.9 µM and the catalytic constant (kcat) is 0.94 s⁻¹.

As to `O=C(O)[C@H](O)[C@@H](O)C(=O)O` [L-tartrate], the “Inhibition of pNPP hydrolysis by EPPasePGM” value at EPPasePGM (concentrations as high as 100 mM) was “did not inhibit”.

Take `O=C(CO)[C@@H](O)[C@H](O)[C@H](O)COP(=O)(O)O` [fructose-6-phosphate]: the “Dephosphorylation by EPPasePGM” value in experiment [1] is given as “failed to dephosphorylate”.

Turning to `C[C@H]1C[C@H]2[C@@H]3CCC4=CC(=O)C=C[C@]4(C)[C@@]3(F)[C@@H](O)C[C@]2(C)[C@@]1(O)C(=O)COP(=O)([O-])[O-].[Na+].[Na+]` [β-Methasone 21P, β-methasone 21-phosphate disodium salt], in experiment [1], the Km is 730 ± 320 µM and the kcat stood at 10.2 s⁻¹.

Values taken from article PMC2722925 (Biochemistry, 2008).
